Where “and” joins values, the source holds several entries; their conditions need not be identical. Equal values may be shown once.
Test system: ZEAMA Sileno
Assay: Tank-mix post-emergence crop damage, greenhouse, visual assessment
Type: in vivo, maize
Set-up: key to Reduction [Difference]: % points: herbicide damage without safener − damage with safener
Conditions: for HER effect + SAF / Reduction [%] / Reduction [Difference]: Final; for HER effect: no safener, Final assessment
Protocol: Seeds of crops (spring wheat, TRZAS; spring barley, HORVS; maize, ZEAMA) were placed in sandy loam soil in peat pots, covered with soil and cultivated in a greenhouse under good growth conditions. Two to three weeks after sowing, the test plants were treated at the 1 to 3-leaf stage. The herbicide/safener active compound combinations according to the invention, formulated as wettable powders or emulsion concentrates, and, in parallel tests, the correspondingly formulated individual active compounds were sprayed onto the green parts of the plants in various dosages using an amount of water of 300 l/ha (converted).
The pots were returned under good growing conditions in a glasshouse and a visual assessment of herbicidal effects was made at intervals from 1 to 3 weeks after herbicide application (DAT=days after treatment). Assessment was on a percentage basis in comparison with untreated control plants (0%=no injury, 100%=complete kill).
Reduction[Difference]=herbicide damage without safener−herbicide damage with safener Reduction[%]=(Reduction[Difference]*100)/herbicide damage without safener
a) Plant Species, Variety: ZEAMA Sileno, Safener (SAF): Isoxadifen-Ethyl

[1] = HER 8 g a.i./ha + isoxadifen-ethyl 50 g a.i./ha
[2] = HER 8 g a.i./ha, isoxadifen-ethyl 50 g a.i./ha
[3] = HER 32 g a.i./ha + isoxadifen-ethyl 100 g a.i./ha
[4] = HER 32 g a.i./ha, isoxadifen-ethyl 100 g a.i./ha
[5] = HER 2 g a.i./ha, isoxadifen-ethyl 50 g a.i./ha

SMILES | HER effect + SAF [1] | Reduction [%] [2] | Reduction [Difference] [2] | HER effect (HER 8 g a.i./ha) | HER effect + SAF [3] | Reduction [%] [4] | Reduction [Difference] [4] | HER effect (HER 32 g a.i./ha) | HER effect + SAF (HER 2 g a.i./ha + isoxadifen-ethyl 50 g a.i./ha) [%] | Reduction [%] [5] [%] | Reduction [Difference] [5] | HER effect (HER 2 g a.i./ha, 0%=no injury, 100%=complete kill) [%]
C=CC1(C(=O)NC2COC(C(=O)OCCOC)C2)CC(c2cc(F)cc(F)c2)=NO1 (mixture of isomers) [Example 1.66] | 43% | 55% | 53 | 96% | 47% | 52% | 50 | 97% | – | – | – | –
COC(=O)C1C=CC(NC(=O)C2(C)CC(c3cc(Cl)cc(C#N)c3)=NO2)C1 (mixture of isomers) [Example 1.23] | 30% | 40% | 20 | 50% | 30% | 57% | 40 | 70% | – | – | – | –
COC(=O)C1C=CC(NC(=O)C2(C)CC(c3cc(F)cc(F)c3)=NO2)C1 (stereo not drawn) [Example 1.19] | 20% | 50% | 20 | 40% | – | – | – | – | – | – | – | –
C=CCOC(=O)C1CC(NC(=O)C2(C=C)CC(c3cc(F)cc(F)c3)=NO2)CO1 (mixture of isomers) [Example 1.83] | 28% | 55% | 34 | 62% | 20% | 76% | 65 | 85% | – | – | – | –
C=CCOC(=O)C1CC(NC(=O)C2(C)CC(c3cc(F)cc(F)c3)=NO2)CO1 (mixture of isomers) [Example 1.75] | 23% | 68% | 50 | 73% | 43% | 51% | 45 | 88% | – | – | – | –
CC1(C(=O)NC2C=CC(C(=O)OCCSCc3ccccc3)C2)CC(c2cc(F)cc(F)c2)=NO1 (stereo not drawn) [Example 1.27] | – | – | – | – | 30% | 50% | 30 | 60% | – | – | – | –
C=CC1(C(=O)NC2COC(C(=O)OCCCl)C2)CC(c2cc(F)cc(F)c2)=NO1 (mixture of isomers) [Example 1.82] | 65% and 53% | 28% and 43% | 25 and 40 | 90% and 93% | 75% and 55% | 22% and 40% | 21 and 37 | 96% and 92% | – | – | – | –
CCOC(=O)C1C=CC(NC(=O)C2(CF)CC(c3cc(F)cc(F)c3)=NO2)C1 (stereo not drawn) [Example 1.17] | 20% | 79% | 75 | 95% | – | – | – | – | 10 | 78 | 35 | 45
CCOC(=O)C1=CCC(NC(=O)C2(C)CC(c3cccc(F)c3)=NO2)C1 (stereo not drawn) [Example 1.59] | – | – | – | – | 10% | 85% | 57 | 67% | – | – | – | –

— patent publication US20230217926A1, “SELECTIVE HERBICIDES BASED ON SUBSTITUTED ISOXAZOLIN CARBOXAMIDES AND ISOXADIFEN-ETHYL” (BAYER AKTIENGESELLSCHAFT, priority 2020, published 2023)
